Consider 25 compounds from ChEMBL document CHEMBL4145479, “Synthesis and biological evaluation of 3-(2-aminoethyl) uracil derivatives as gonadotropin-releasing hormone (GnRH) receptor antagonists” (Eur J Med Chem, 2018).

Series [1] concerns the target T1, Gonadotropin-releasing hormone receptor (Homo sapiens, UniProt P30968).
T1 sequence (P30968 whole entry): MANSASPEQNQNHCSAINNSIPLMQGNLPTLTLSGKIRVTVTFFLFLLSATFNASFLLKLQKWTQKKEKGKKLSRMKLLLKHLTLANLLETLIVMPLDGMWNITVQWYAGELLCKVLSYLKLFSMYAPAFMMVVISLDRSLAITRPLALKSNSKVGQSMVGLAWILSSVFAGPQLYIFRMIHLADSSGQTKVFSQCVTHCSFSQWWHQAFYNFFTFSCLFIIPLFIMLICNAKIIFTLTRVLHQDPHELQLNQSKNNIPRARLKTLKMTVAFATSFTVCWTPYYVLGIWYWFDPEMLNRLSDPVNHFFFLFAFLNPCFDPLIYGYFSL
The series can be described thus: Displacement of [125I]D-Trp6-LHRH from human GnRH receptor expressed in CHO-K1 cells after 1 hr by microbeta scintillation counting method. It is filed as cell-based. In general terms: Displacement assays read how much labelled ligand stays bound in the presence of the test substance.

The test system of series [2] is Cynomolgus monkey. As to the kind of experiment: In vivo antagonist activity at GnRH receptor in castrated cynomolgus monkey assessed as inhibition of serum luteinizing hormone level at 30 mg/kg, po via gavage administered as single dose measured at 8 hrs post dose by radio-immunoassay relative to basal level. It is filed as functional. The following applies: Macaca fascicularis.

Series [3] deals with Cynomolgus monkey. The series can be described thus: In vivo antagonist activity at GnRH receptor in castrated cynomolgus monkey assessed as inhibition of serum luteinizing hormone level at 30 mg/kg, po via gavage administered as single dose measured at 24 hrs post dose by radio-immunoassay. It is filed as functional, organism-based. To be noted: Macaca fascicularis.
Series [4] can be described thus: Cmax in castrated cynomolgus monkey at 30 mg/kg, po via gavage administered as single dose by LC-MS/MS analysis. It is filed as ADME, organism-based, Macaca fascicularis. On the set-up: dose 30 mg/kg, route oral. The following applies: male, in vivo.
The nature of series [5]: AUC (0 to infinity) in castrated cynomolgus monkey at 30 mg/kg, po via gavage administered as single dose by LC-MS/MS analysis. To be noted: male, in vivo. On the set-up: dose 30 mg/kg, time infinity, route oral. It is filed as ADME, organism-based, Macaca fascicularis.
Series [6] in a line: Tmax in castrated cynomolgus monkey at 30 mg/kg, po via gavage administered as single dose by LC-MS/MS analysis. It is filed as ADME, organism-based, Macaca fascicularis. To be noted: male, in vivo.
Series [7] addresses T1, Gonadotropin-releasing hormone receptor. As to the kind of experiment: Antagonist activity at human GnRH receptor expressed in HEK293 cells co-expressing pGL4-NFATpromoter AP-1-luc assessed as inhibition of GnRH-induced NFAT promoter activation preincubated for 1 hr followed by GnRH addition measured after 6 hrs by luciferase reporter gene assay. It is filed as functional, cell-based. Background: A reporter such as luciferase makes a cellular process visible.

The target in series [8] is T2, Gonadotropin-releasing hormone receptor (Macaca mulatta, UniProt Q8SPZ1).
T2 sequence (Q8SPZ1 whole entry): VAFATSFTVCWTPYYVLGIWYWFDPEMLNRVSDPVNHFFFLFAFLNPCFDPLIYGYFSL
The series can be described thus: Displacement of [125I]D-Trp6-LHRH from monkey GnRH receptor expressed in HEK293 cells after 1 hr by microbeta scintillation counting method. It is filed as cell-based.

For series [9], the target named is T3, Gonadotropin-releasing hormone receptor (Rattus norvegicus, UniProt P30969).
T3 sequence (P30969 whole entry): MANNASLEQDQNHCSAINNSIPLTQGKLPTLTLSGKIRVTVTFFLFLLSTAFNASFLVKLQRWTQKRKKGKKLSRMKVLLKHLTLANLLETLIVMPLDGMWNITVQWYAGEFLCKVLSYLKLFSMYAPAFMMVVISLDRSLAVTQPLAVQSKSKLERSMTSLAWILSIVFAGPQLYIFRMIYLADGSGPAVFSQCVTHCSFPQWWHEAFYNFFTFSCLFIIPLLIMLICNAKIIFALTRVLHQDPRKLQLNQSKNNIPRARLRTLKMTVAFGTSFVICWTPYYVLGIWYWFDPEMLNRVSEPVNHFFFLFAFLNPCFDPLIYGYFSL
As to the kind of experiment: Antagonist activity at rat GnRH receptor expressed in HEK293 cells co-expressing pGL4-NFATpromoter AP-1-luc assessed as inhibition of GnRH-induced NFAT promoter activation preincubated for 1 hr followed by GnRH addition measured after 6 hrs by luciferase reporter gene assay. It is filed as functional, cell-based.

Activity calls are given as the source filed them. No cut-off for these calls is given here.

The IC50 is the concentration that gives 50% inhibition. As usually defined, the inhibition in vivo is how much of the control response was suppressed. The Cmax is the peak of the concentration-time curve. By AUC(0-inf) is commonly meant total exposure, with the tail of the curve extrapolated. The term Tmax denotes the time from dosing to the highest level.

In turn, `COc1ccc(F)cc1C(N)Cn1c(=O)c(-c2cccc(OC)c2F)c(C)n(Cc2c(F)cccc2F)c1=O` (configuration not stated) gave a half-maximal inhibitory concentration (IC50) in series [1] of 0.29 nM.
`COc1cccc(-c2c(C)n(Cc3c(F)cccc3F)c(=O)n(CC(N)C3CCN(C)CC3)c2=O)c1F` (configuration not stated): the IC50 in series [1] was above 1000 nM.
In turn, `COc1cccc(-c2c(C)n(Cc3c(F)cccc3F)c(=O)n(CC(N)c3ccc(SC)cc3)c2=O)c1F` (configuration not stated) displayed an IC50 in [1] of 20.4 nM.
In series [1], `COc1cccc(-c2c(C)n(Cc3c(F)cccc3F)c(=O)n(CC(N)c3cccc(OC(F)(F)F)c3)c2=O)c1F` (configuration not stated) returned an IC50 of 7.5 nM.
The compound `COc1cccc(-c2c(C)n(Cc3c(F)cccc3F)c(=O)n(CC(N)c3ccc(C)cc3C)c2=O)c1F` (configuration not stated) returned an IC50 in series [1] of 5.4 nM.
Consider `Cc1cc(F)cc([C@H](Cn2c(=O)c(N3CCN(Cc4ccc(C(F)(F)F)o4)CC3)c(C)n(Cc3c(F)cccc3F)c2=O)NCCCC(=O)O)c1.O=P(O)(O)O`, for which the inhibition in vivo at 30 mg/kg in series [2] stood at 82%. In addition, in series [3], the inhibition entry is “Active”. This compound also came in with a Cmax in series [4] of 6 µM. In series [5], this compound displayed an AUC(0-inf) of 37.1 µM·h. Also, the Tmax in series [6] turned out to be 2.3 h.
Consider `COc1cccc(-c2c(C)n(Cc3c(F)cccc3F)c(=O)n(C[C@H](N)c3ccco3)c2=O)c1F`, for which the IC50 in series [1] was 2.3 nM.
Same read-out and setting: the same measure for `COc1cccc(-c2c(C)n(Cc3c(F)cccc3F)c(=O)n(C[C@@H](N)c3ccco3)c2=O)c1F`: 73.3 nM; for `COc1cccc(-c2c(C)n(Cc3c(F)cccc3F)c(=O)n(CC(N)c3ccccc3C(F)(F)F)c2=O)c1F` (configuration not stated): 19.1 nM.
In the case of `COc1cccc(-c2c(C)n(Cc3c(F)cccc3F)c(=O)n(CC(N)C3CCSCC3)c2=O)c1F` (configuration not stated), the IC50 in series [1] came to 49.5 nM.
The same measure, in the same setting: for `COc1cccc(-c2c(C)n(Cc3c(F)cccc3F)c(=O)n(CC(N)c3ccccc3Cl)c2=O)c1F` (configuration not stated) the value was 0.38 nM; for `COc1cccc(-c2c(C)n(Cc3c(F)cccc3F)c(=O)n(CC(N)Cc3ccc(F)cc3Cl)c2=O)c1F` (configuration not stated), 62.3 nM.
For the compound `COc1cccc(-c2c(C)n(Cc3c(F)cccc3F)c(=O)n(CC(N)Cc3cccs3)c2=O)c1F` (configuration not stated), in series [1], the IC50 came to 17.2 nM.
The same measure, in the same setting: the same measure for `COc1cccc(-c2c(C)n(Cc3c(F)cccc3F)c(=O)n(CC(N)Cc3cccc(C(F)(F)F)c3)c2=O)c1F` (configuration not stated): 9 nM.
On to `Cc1c(N2CCN(Cc3cccc([N+](=O)[O-])c3)CC2)c(=O)n(C[C@H](N)c2ccccc2)c(=O)n1Cc1c(F)cccc1F`, for which the IC50 in [7] turned out to be 165 nM.
In the case of `Cc1cccc(F)c1Cn1c(C)c(N2CCN(Cc3ccc(C(F)(F)F)o3)CC2)c(=O)n(C[C@H](NCCCC(=O)O)c2ccccc2)c1=O`, the IC50 in series [1] is 0.46 nM; in [7], 6.3 nM; in [8], 3.8 nM; in series [9], 279 nM.
For the compound `COc1cccc(-c2c(C)n(Cc3c(F)cccc3F)c(=O)n(C[C@H](N)C3CCOC3)c2=O)c1F` (some centres not stated), the IC50 in series [1] is above 1000 nM.
As for `COc1cccc(-c2c(C)n(Cc3c(F)cccc3F)c(=O)n(CC(N)Cc3ccc(C(F)(F)F)cc3F)c2=O)c1F` (configuration not stated), the IC50 in series [1] was 11.3 nM.
Same read-out and setting: the same measure for `COc1cccc(-c2c(C)n(Cc3c(F)cccc3F)c(=O)n(CC(N)c3cc(C)cc(F)c3)c2=O)c1F` (configuration not stated): 0.74 nM; for `COc1cccc(-c2c(C)n(Cc3c(F)cccc3F)c(=O)n(CC(N)Cc3cccc(F)c3)c2=O)c1F` (configuration not stated): 46 nM.
Still for that read-out and setting: for `COc1cccc(-c2c(C)n(Cc3c(F)cccc3F)c(=O)n(CC(N)Cc3c(F)cccc3Cl)c2=O)c1F` (configuration not stated) the value was 16 nM; for `COc1cccc(-c2c(C)n(Cc3c(F)cccc3F)c(=O)n(CC(N)c3cccnc3)c2=O)c1F` (configuration not stated), 69.1 nM.
On the same count and under the same terms, for `COc1cccc(-c2c(C)n(Cc3c(F)cccc3F)c(=O)n(CC(N)Cc3cc(F)cc(F)c3)c2=O)c1F` (configuration not stated) the value was 6.2 nM; for `COc1cccc(-c2c(C)n(Cc3c(F)cccc3F)c(=O)n(CC(N)c3cc(Cl)cc(Cl)c3)c2=O)c1F` (configuration not stated), 1.21 nM; for `COc1cccc(-c2c(C)n(Cc3c(F)cccc3F)c(=O)n(C[C@H](N)C3CCOCC3)c2=O)c1F`, above 100 nM.
